System: not listed separately
Test: Cytotoxicity against human HCT116 cells assessed as growth inhibition at 100 uM after 2 days by MTT assay
Type: functional
Details: HCT-116, 48 h, read-out: GI

Row | SMILES | inhibition of growth at 100 µM [%]
1 | CNC(=O)c1cc(Oc2ccc3nc(NC(=O)Nc4ccc(Cl)c(Cl)c4)sc3c2)ccn1 | 91.9

System: not listed separately
Test: Cytotoxicity against human HCT116 cells assessed as growth inhibition at 10 uM after 2 days by MTT assay
Type: functional
Details: HCT-116, 48 h, read-out: GI

Row | SMILES | inhibition of growth at 10 µM [%]
2 | CNC(=O)c1cc(Oc2ccc3nc(NC(=O)Nc4ccc(Cl)c(Cl)c4)sc3c2)ccn1 | 69.8

System: not listed separately
Test: Cytotoxicity against human SKBR3 cells assessed as growth inhibition at 100 uM after 2 days by MTT assay
Type: functional
Details: SK-BR-3, 48 h, read-out: GI

Row | SMILES | inhibition of growth at 100 µM [%]
3 | CNC(=O)c1cc(Oc2ccc3nc(NC(=O)Nc4ccc(Cl)c(Cl)c4)sc3c2)ccn1 | 92.6

System: not listed separately
Test: Cytotoxicity against human SKBR3 cells assessed as growth inhibition at 10 uM after 2 days by MTT assay
Type: functional
Details: SK-BR-3, 48 h, read-out: GI

Row | SMILES | inhibition of growth at 10 µM [%]
4 | CNC(=O)c1cc(Oc2ccc3nc(NC(=O)Nc4ccc(Cl)c(Cl)c4)sc3c2)ccn1 | 69

System: not listed separately
Test: Antiproliferative activity against human MOLT4 cells assessed as cell growth at 10^-5 M after 48 hrs by sulforhodamine B assay
Type: functional
Details: MOLT-4, 48 h, read-out: Activity

Row | SMILES | growth at 10 µM [%]
5 | CNC(=O)c1cc(Oc2ccc3nc(NC(=O)Nc4ccc(Cl)c(Cl)c4)sc3c2)ccn1 | 76

System: not listed separately
Test: Antiproliferative activity against human RPMI8226 cells assessed as cell growth at 10^-5 M after 48 hrs by sulforhodamine B assay
Type: functional
Details: RPMI-8226, 48 h, read-out: Activity

Row | SMILES | growth at 10 µM [%]
6 | CNC(=O)c1cc(Oc2ccc3nc(NC(=O)Nc4ccc(Cl)c(Cl)c4)sc3c2)ccn1 | 9

System: A549
Test: Antiproliferative activity against human A549/ATCC cells assessed as cell growth at 10^-5 M after 48 hrs by sulforhodamine B assay
Type: functional
Details: A549, 48 h, read-out: Activity

Row | SMILES | growth at 10 µM [%]
7 | CNC(=O)c1cc(Oc2ccc3nc(NC(=O)Nc4ccc(Cl)c(Cl)c4)sc3c2)ccn1 | -62

System: not listed separately
Test: Antiproliferative activity against human HOP62 cells assessed as cell growth at 10^-5 M after 48 hrs by sulforhodamine B assay
Type: functional
Details: HOP-62, 48 h, read-out: Activity

Row | SMILES | growth at 10 µM [%]
8 | CNC(=O)c1cc(Oc2ccc3nc(NC(=O)Nc4ccc(Cl)c(Cl)c4)sc3c2)ccn1 | -79

System: not listed separately
Test: Antiproliferative activity against human HOP92 cells assessed as cell growth at 10^-5 M after 48 hrs by sulforhodamine B assay
Type: functional
Details: HOP-92, 48 h, read-out: Activity

Row | SMILES | growth at 10 µM [%]
9 | CNC(=O)c1cc(Oc2ccc3nc(NC(=O)Nc4ccc(Cl)c(Cl)c4)sc3c2)ccn1 | -44

System: NCI-H226
Test: Antiproliferative activity against human NCI-H226 cells assessed as cell growth at 10^-5 M after 48 hrs by sulforhodamine B assay
Type: functional
Details: NCI-H226, 48 h, read-out: Activity

Row | SMILES | growth at 10 µM [%]
10 | CNC(=O)c1cc(Oc2ccc3nc(NC(=O)Nc4ccc(Cl)c(Cl)c4)sc3c2)ccn1 | -56

System: NCI-H460
Test: Antiproliferative activity against human NCI-H460 cells assessed as cell growth at 10^-5 M after 48 hrs by sulforhodamine B assay
Type: functional
Details: NCI-H460, 48 h, read-out: Activity

Row | SMILES | growth at 10 µM [%]
11 | CNC(=O)c1cc(Oc2ccc3nc(NC(=O)Nc4ccc(Cl)c(Cl)c4)sc3c2)ccn1 | -40

System: NCI-H522
Test: Antiproliferative activity against human NCI-H522 cells assessed as cell growth at 10^-5 M after 48 hrs by sulforhodamine B assay
Type: functional
Details: NCI-H522, 48 h, read-out: Activity

Row | SMILES | growth at 10 µM [%]
12 | CNC(=O)c1cc(Oc2ccc3nc(NC(=O)Nc4ccc(Cl)c(Cl)c4)sc3c2)ccn1 | 20

System: not listed separately
Test: Antiproliferative activity against human COLO205 cells assessed as cell growth at 10^-5 M after 48 hrs by sulforhodamine B assay
Type: functional
Details: COLO 205, 48 h, read-out: Activity

Row | SMILES | growth at 10 µM [%]
13 | CNC(=O)c1cc(Oc2ccc3nc(NC(=O)Nc4ccc(Cl)c(Cl)c4)sc3c2)ccn1 | 16

System: not listed separately
Test: Antiproliferative activity against human HCT15 cells assessed as cell growth at 10^-5 M after 48 hrs by sulforhodamine B assay
Type: functional
Details: HCT-15, 48 h, read-out: Activity

Row | SMILES | growth at 10 µM [%]
14 | CNC(=O)c1cc(Oc2ccc3nc(NC(=O)Nc4ccc(Cl)c(Cl)c4)sc3c2)ccn1 | -19

System: KM12
Test: Antiproliferative activity against human KM12 cells assessed as cell growth at 10^-5 M after 48 hrs by sulforhodamine B assay
Type: functional
Details: KM12, 48 h, read-out: Activity

Row | SMILES | growth at 10 µM [%]
15 | CNC(=O)c1cc(Oc2ccc3nc(NC(=O)Nc4ccc(Cl)c(Cl)c4)sc3c2)ccn1 | 5

System: not listed separately
Test: Antiproliferative activity against human SNB75 cells assessed as cell growth at 10^-5 M after 48 hrs by sulforhodamine B assay
Type: functional
Details: SNB-75, 48 h, read-out: Activity

Row | SMILES | growth at 10 µM [%]
16 | CNC(=O)c1cc(Oc2ccc3nc(NC(=O)Nc4ccc(Cl)c(Cl)c4)sc3c2)ccn1 | -69

System: Malme-3M
Test: Antiproliferative activity against human MALME-3M cells assessed as cell growth at 10^-5 M after 48 hrs by sulforhodamine B assay
Type: functional
Details: read-out: Activity

Row | SMILES | growth at 10 µM [%]
17 | CNC(=O)c1cc(Oc2ccc3nc(NC(=O)Nc4ccc(Cl)c(Cl)c4)sc3c2)ccn1 | -71

System: M14
Test: Antiproliferative activity against human M14 cells assessed as cell growth at 10^-5 M after 48 hrs by sulforhodamine B assay
Type: functional
Details: M14, 48 h, read-out: Activity

Row | SMILES | growth at 10 µM [%]
18 | CNC(=O)c1cc(Oc2ccc3nc(NC(=O)Nc4ccc(Cl)c(Cl)c4)sc3c2)ccn1 | -47

System: SK-MEL-2
Test: Antiproliferative activity against human SK-MEL-2 cells assessed as cell growth at 10^-5 M after 48 hrs by sulforhodamine B assay
Type: functional
Details: SK-MEL-2, 48 h, read-out: Activity

Row | SMILES | growth at 10 µM [%]
19 | CNC(=O)c1cc(Oc2ccc3nc(NC(=O)Nc4ccc(Cl)c(Cl)c4)sc3c2)ccn1 | -30

System: SK-MEL-28
Test: Antiproliferative activity against human SK-MEL-28 cells assessed as cell growth at 10^-5 M after 48 hrs by sulforhodamine B assay
Type: functional
Details: SK-MEL-28, 48 h, read-out: Activity

Row | SMILES | growth at 10 µM [%]
20 | CNC(=O)c1cc(Oc2ccc3nc(NC(=O)Nc4ccc(Cl)c(Cl)c4)sc3c2)ccn1 | -72

System: not listed separately
Test: Antiproliferative activity against human UACC257 cells assessed as cell growth at 10^-5 M after 48 hrs by sulforhodamine B assay
Type: functional
Details: UACC-257, 48 h, read-out: Activity

Row | SMILES | growth at 10 µM [%]
21 | CNC(=O)c1cc(Oc2ccc3nc(NC(=O)Nc4ccc(Cl)c(Cl)c4)sc3c2)ccn1 | -23

System: not listed separately
Test: Antiproliferative activity against human IGROV1 cells assessed as cell growth at 10^-5 M after 48 hrs by sulforhodamine B assay
Type: functional
Details: IGROV-1, 48 h, read-out: Activity

Row | SMILES | growth at 10 µM [%]
22 | CNC(=O)c1cc(Oc2ccc3nc(NC(=O)Nc4ccc(Cl)c(Cl)c4)sc3c2)ccn1 | -20

System: not listed separately
Test: Antiproliferative activity against human OVCAR3 cells assessed as cell growth at 10^-5 M after 48 hrs by sulforhodamine B assay
Type: functional
Details: OVCAR-3, 48 h, read-out: Activity

Row | SMILES | growth at 10 µM [%]
23 | CNC(=O)c1cc(Oc2ccc3nc(NC(=O)Nc4ccc(Cl)c(Cl)c4)sc3c2)ccn1 | -37

System: not listed separately
Test: Antiproliferative activity against human OVCAR4 cells assessed as cell growth at 10^-5 M after 48 hrs by sulforhodamine B assay
Type: functional
Details: OVCAR-4, 48 h, read-out: Activity

Row | SMILES | growth at 10 µM [%]
24 | CNC(=O)c1cc(Oc2ccc3nc(NC(=O)Nc4ccc(Cl)c(Cl)c4)sc3c2)ccn1 | -68

System: not listed separately
Test: Antiproliferative activity against human OVCAR8 cells assessed as cell growth at 10^-5 M after 48 hrs by sulforhodamine B assay
Type: functional
Details: OVCAR-8, 48 h, read-out: Activity

Row | SMILES | growth at 10 µM [%]
25 | CNC(=O)c1cc(Oc2ccc3nc(NC(=O)Nc4ccc(Cl)c(Cl)c4)sc3c2)ccn1 | -40

System: not listed separately
Test: Antiproliferative activity against human SKOV3 cells assessed as cell growth at 10^-5 M after 48 hrs by sulforhodamine B assay
Type: functional
Details: SK-OV-3, 48 h, read-out: Activity

Row | SMILES | growth at 10 µM [%]
26 | CNC(=O)c1cc(Oc2ccc3nc(NC(=O)Nc4ccc(Cl)c(Cl)c4)sc3c2)ccn1 | -74

System: 786-0
Test: Antiproliferative activity against human 786-0 cells assessed as cell growth at 10^-5 M after 48 hrs by sulforhodamine B assay
Type: functional
Details: 786-0, 48 h, read-out: Activity

Row | SMILES | growth at 10 µM [%]
27 | CNC(=O)c1cc(Oc2ccc3nc(NC(=O)Nc4ccc(Cl)c(Cl)c4)sc3c2)ccn1 | -41

System: A498
Test: Antiproliferative activity against human A498 cells assessed as cell growth at 10^-5 M after 48 hrs by sulforhodamine B assay
Type: functional
Details: A498, 48 h, read-out: Activity

Row | SMILES | growth at 10 µM [%]
28 | CNC(=O)c1cc(Oc2ccc3nc(NC(=O)Nc4ccc(Cl)c(Cl)c4)sc3c2)ccn1 | -25

System: not listed separately
Test: Antiproliferative activity against human Caki1 cells assessed as cell growth at 10^-5 M after 48 hrs by sulforhodamine B assay
Type: functional
Details: CAKI-1, 48 h, read-out: Activity

Row | SMILES | growth at 10 µM [%]
29 | CNC(=O)c1cc(Oc2ccc3nc(NC(=O)Nc4ccc(Cl)c(Cl)c4)sc3c2)ccn1 | -25

System: SN12C
Test: Antiproliferative activity against human SN12C cells assessed as cell growth at 10^-5 M after 48 hrs by sulforhodamine B assay
Type: functional
Details: read-out: Activity

Row | SMILES | growth at 10 µM [%]
30 | CNC(=O)c1cc(Oc2ccc3nc(NC(=O)Nc4ccc(Cl)c(Cl)c4)sc3c2)ccn1 | 14

System: not listed separately
Test: Antiproliferative activity against human TK10 cells assessed as cell growth at 10^-5 M after 48 hrs by sulforhodamine B assay
Type: functional
Details: TK-10, 48 h, read-out: Activity

Row | SMILES | growth at 10 µM [%]
31 | CNC(=O)c1cc(Oc2ccc3nc(NC(=O)Nc4ccc(Cl)c(Cl)c4)sc3c2)ccn1 | -4

System: not listed separately
Test: Antiproliferative activity against human UO31 cells assessed as cell growth at 10^-5 M after 48 hrs by sulforhodamine B assay
Type: functional
Details: UO-31, 48 h, read-out: Activity

Row | SMILES | growth at 10 µM [%]
32 | CNC(=O)c1cc(Oc2ccc3nc(NC(=O)Nc4ccc(Cl)c(Cl)c4)sc3c2)ccn1 | -72

System: MCF7
Test: Antiproliferative activity against human MCF7 cells assessed as cell growth at 10^-5 M after 48 hrs by sulforhodamine B assay
Type: functional
Details: MCF7, 48 h, read-out: Activity

Row | SMILES | growth at 10 µM [%]
33 | CNC(=O)c1cc(Oc2ccc3nc(NC(=O)Nc4ccc(Cl)c(Cl)c4)sc3c2)ccn1 | 4

System: MDA-MB-231
Test: Antiproliferative activity against human MDA-MB-231 cells assessed as cell growth at 10^-5 M after 48 hrs by sulforhodamine B assay
Type: functional
Details: MDA-MB-231, 48 h, read-out: Activity

Row | SMILES | growth at 10 µM [%]
34 | CNC(=O)c1cc(Oc2ccc3nc(NC(=O)Nc4ccc(Cl)c(Cl)c4)sc3c2)ccn1 | -20

System: not listed separately
Test: Antiproliferative activity against human Hs 578T cells assessed as cell growth at 10^-5 M after 48 hrs by sulforhodamine B assay
Type: functional
Details: read-out: Activity

Row | SMILES | growth at 10 µM [%]
35 | CNC(=O)c1cc(Oc2ccc3nc(NC(=O)Nc4ccc(Cl)c(Cl)c4)sc3c2)ccn1 | -23

System: not listed separately
Test: Antiproliferative activity against human BT549 cells assessed as cell growth at 10^-5 M after 48 hrs by sulforhodamine B assay
Type: functional
Details: BT-549, 48 h, read-out: Activity

Row | SMILES | growth at 10 µM [%]
36 | CNC(=O)c1cc(Oc2ccc3nc(NC(=O)Nc4ccc(Cl)c(Cl)c4)sc3c2)ccn1 | 26

System: T47D
Test: Antiproliferative activity against human T47D cells assessed as cell growth at 10^-5 M after 48 hrs by sulforhodamine B assay
Type: functional
Details: read-out: Activity

Row | SMILES | growth at 10 µM [%]
37 | CNC(=O)c1cc(Oc2ccc3nc(NC(=O)Nc4ccc(Cl)c(Cl)c4)sc3c2)ccn1 | -26

Reference: ChEMBL document CHEMBL3797052 (Eur J Med Chem, 2016)
